Laboratory results published in patent US8252723B2, “Substituted 1-(3-pyridinyl)pyrazol-4-ylacetic acids, processes for their preparation and their use as herbicides and plant growth regulators” (Bayer CropScience AG, priority 2006, dated 2012).

What was measured:
Assay type in all cases: in vivo
[1] = test system: weed plants such as Lolium multiflorum, Amaranthus retroflexus, Sinapis alba, Stellaria media and Setaria viridis; test: Pre-emergence effect on weeds (greenhouse pot test, visual scoring); details: pre-emergence method, application rate of 1 kg or less of active substance per hectare, visual scoring after 3 to 4 weeks vs untreated controls; read-out: herbicidal action (control)
Description: Seeds or sections of rhizome from monocotyledonous and dicotyledonous weed plants were laid out in sandy loam soil in plastic pots, and covered with soil. The compounds according to the invention, formulated as wettable powders or emulsifiable concentrates, were then applied, in the form of aqueous suspensions or emulsions, at various dosages, onto the surface of the covering soil, at an application rate of 600 to 800 l of water/ha (converted).

[2] = test system: weed plants such as Lolium multiflorum, Amaranthus retroflexus, Sinapis alba, Stellaria media and Setaria viridis; test: Post-emergence effect on weeds (greenhouse pot test, visual scoring); details: application rate of 500 g or less of active substance per hectare, visual scoring after about 3 to 4 weeks vs untreated controls, read-out: herbicidal action (control)
[3] = test system: summer wheat of the cultivar 'Triso'; test: Plant growth regulation test: culm stabilization of crop plants; details: application rate of 30 to 300 g of active substance per hectare, treated at stage BBCH 31, culm length measured after ears had formed
Method in brief: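 Wettable-powder formulation with adjuvant (1 l/ha) sprayed at 300 l water/ha onto pot-grown plants at BBCH 31, then kept outdoors. After ear formation culm length was measured; culm stabilization is expressed as percent of untreated control.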

| Compound | pest or weed control at up to 1000 g/ha [1] [%] | pest or weed control at up to 500 g/ha [2] [%] | longitudinal growth (culm length) of summer wheat [3] |
| --- | --- | --- | --- |
| Cc1ccncc1-n1nc(C)c(CC(=O)O)c1-c1ccccc1 [Example 1-10, [3-Methyl-1-(4-methylpyridin-3-yl)-5-phenyl-1H-pyrazol-4-yl]acetic acid] | ≥ 70 | ≥ 70 | effectively shortened |
| Cc1nn(-c2cccnc2)c(-c2cccc(Cl)c2)c1CC(=O)O [Example 1-17, [5-(3-Chlorophenyl)-3-methyl-1-pyridin-3-yl-1H-pyrazol-4-yl]acetic acid] | ≥ 70 | ≥ 70 | effectively shortened |
| COC(=O)Cc1c(C)nn(-c2cnccc2C)c1-c1ccccc1 [Example 2-10, Methyl [3-methyl-1-(4-methylpyridin-3-yl)-5-phenyl-1H-pyrazol-4-yl]acetate] | ≥ 70 | ≥ 70 | effectively shortened |
| COC(=O)Cc1c(C)nn(-c2cccnc2)c1-c1cccc(Cl)c1 [Example 2-17, Methyl [5-(3-chlorophenyl)-3-methyl-1-pyridin-3-yl-1H-pyrazol-4-yl]acetate] | ≥ 70 | ≥ 70 | effectively shortened |
| C#CCOC(=O)Cc1c(C)nn(-c2cnccc2C)c1-c1ccccc1 [Example 3-76, Prop-2-yn-1-yl [3-methyl-1-(4-methylpyridin-3-yl)-5-phenyl-1H-pyrazol-4-yl]acetate] | ≥ 70 | ≥ 70 | effectively shortened |
| Cc1nn(-c2cccnc2)c(-c2ccc(O)nc2)c1CC(=O)OCC1CC1 [Example 3-87] | – | – | effectively shortened |
| Cc1nn(-c2cccnc2)c(-c2ccc(F)cc2)c1CC(=O)OCC1CC1 [Example 3-91] | – | – | effectively shortened |
| Cc1ccncc1-n1nc(C)c(CC(=O)OCC2CC2)c1-c1ccc(Cl)cc1 [Example 3-98] | – | – | effectively shortened |
| Cc1ccncc1-n1nc(C)c(CC(=O)OCC2CC2)c1-c1ccccc1 [Example 3-99, Cyclopropylmethyl [3-methyl-1-(4-methylpyridin-3-yl)-5-phenyl-1H-pyrazol-4-yl]acetate] | ≥ 70 | ≥ 70 | effectively shortened |
| O=C(Cc1cnn(-c2cccnc2)c1-c1ccccc1)OCC1CC1 [Example 3-100] | – | – | effectively shortened |
| Cc1nn(-c2cccnc2)c(-c2ccccc2)c1CC(=O)OCC(F)=C(Cl)Cl [Example 3-101] | – | – | effectively shortened |
| Cc1nn(-c2cccnc2)c(-c2ccccc2)c1CC(=O)OCC1(C)CC1 [Example 3-105] | – | – | effectively shortened |
| Cc1nn(-c2cccnc2)c(-c2ccccc2)c1CC(=O)OCC#CCCl [Example 3-109] | – | – | effectively shortened |
| Cc1nn(-c2cccnc2)c(-c2ccccc2)c1CC(=O)OCC1CC1(Cl)Cl (centres unmarked) [Example 3-113] | – | – | effectively shortened |
| CC#CCOC(=O)Cc1c(C)nn(-c2cccnc2)c1-c1ccccc1 [Example 3-117] | – | – | effectively shortened |
| CC#CCOC(=O)Cc1c(C)nn(-c2cccnc2)c1-c1ccc(Cl)cc1 [Example 3-118] | – | – | effectively shortened |
| CC#CCOC(=O)Cc1c(C)nn(-c2cccnc2)c1-c1ccccn1 [Example 3-136] | – | – | effectively shortened |
| CC#CCOC(=O)Cc1c(C)nn(-c2cnccc2C)c1-c1ccccc1 [Example 3-139] | – | – | effectively shortened |
| C#CC(C)OC(=O)Cc1c(C)nn(-c2cccnc2)c1-c1ccccc1 (centres unmarked) [Example 3-140] | – | – | effectively shortened |
| Cc1nn(-c2cccnc2)c(-c2ccccc2)c1CC(=O)OC(C)C1CC1 (centres unmarked) [Example 3-144] | – | – | effectively shortened |
| C=CCOC(=O)Cc1c(C)nn(-c2cccnc2)c1-c1ccccc1 [Example 3-148] | – | – | effectively shortened |
| CC(C)=CCOC(=O)Cc1c(C)nn(-c2cccnc2)c1-c1ccccc1 [Example 3-152] | – | – | effectively shortened |
| C=C(C)COC(=O)Cc1c(C)nn(-c2cccnc2)c1-c1ccccc1 [Example 3-156] | – | – | effectively shortened |
| C/C=C/C(C)OC(=O)Cc1c(C)nn(-c2cccnc2)c1-c1ccccc1 (centres unmarked) [Example 3-160] | – | – | effectively shortened |

| Compound | pest or weed control at up to 1000 g/ha [1] [%] | pest or weed control at up to 500 g/ha [2] [%] | longitudinal growth (culm length) of summer wheat [3] |
| --- | --- | --- | --- |
| Cc1nn(-c2cccnc2)c(-c2ccccc2)c1CC(=O)OCC#Cc1ccccc1 [Example 3-164] | – | – | effectively shortened |
| Cc1nn(-c2cccnc2)c(-c2ccccc2)c1CC(=O)OCC1CCC1 [Example 3-168] | – | – | effectively shortened |
| Cc1nn(-c2cccnc2)c(-c2ccccc2)c1CC(=O)OCC1CCCC1 [Example 3-172] | – | – | effectively shortened |
| Cc1nn(-c2cccnc2)c(-c2ccc(Cl)cc2)c1CC(=O)OCC1CCCCC1 [Example 3-177] | – | – | effectively shortened |
| C=CCCOC(=O)Cc1c(C)nn(-c2cccnc2)c1-c1ccccc1 [Example 3-180] | – | – | effectively shortened |
| C=C(Cl)COC(=O)Cc1c(C)nn(-c2cccnc2)c1-c1ccccc1 [Example 3-184] | – | – | effectively shortened |
| C=C(Cl)COC(=O)Cc1c(C)nn(-c2cccnc2)c1-c1cccs1 [Example 3-186] | – | – | effectively shortened |
| C=C(Cl)COC(=O)Cc1c(C)nn(-c2cccnc2)c1-c1ccsc1 [Example 3-187] | – | – | effectively shortened |
| C=C(Cl)COC(=O)Cc1c(C)nn(-c2cccnc2)c1-c1sccc1C [Example 3-188] | – | – | effectively shortened |
| C=C(Cl)COC(=O)Cc1c(C)nn(-c2cccnc2)c1-c1cc(C)cs1 [Example 3-189] | – | – | effectively shortened |
| C=C(Cl)COC(=O)Cc1c(C)nn(-c2cccnc2)c1-c1ccc(Cl)s1 [Example 3-190] | – | – | effectively shortened |
| C=C(Cl)COC(=O)Cc1c(C)nn(-c2cccnc2)c1-c1ccc(C)s1 [Example 3-191] | – | – | effectively shortened |
| C=C(Cl)COC(=O)Cc1c(C)nn(-c2cccnc2)c1-c1ccc(OC)nc1 [Example 3-193] | – | – | effectively shortened |
| C=C(Cl)COC(=O)Cc1c(C)nn(-c2cccnc2)c1-c1ccc(C)nc1 [Example 3-195] | – | – | effectively shortened |
| C=C(Cl)COC(=O)Cc1c(C)nn(-c2cccnc2)c1-c1ccc(F)cc1 [Example 3-198] | – | – | effectively shortened |
| C=C(Cl)COC(=O)Cc1c(C)nn(-c2cccnc2)c1-c1ccccn1 [Example 3-203] | – | – | effectively shortened |
| C=C(Cl)COC(=O)Cc1cnn(-c2cccnc2)c1-c1ccccc1 [Example 3-207] | – | – | effectively shortened |
| CCOC(=O)Cc1c(C)nn(-c2cccnc2)c1-c1ccccn1 [Example 3-227] | – | – | effectively shortened |
| COCCOC(=O)Cc1c(C)nn(-c2cccnc2)c1-c1ccc(Cl)cc1 [Example 3-229] | – | – | effectively shortened |
| Cc1nn(-c2cccnc2)c(-c2ccccn2)c1CC(=O)OCC1CCCO1 (centres unmarked) [Example 3-230] | – | – | effectively shortened |
| Cc1nn(-c2cccnc2)c(-c2ccc(Cl)cc2)c1CC(=O)OCCN(C)C [Example 3-231] | – | – | effectively shortened |
| Cc1nn(-c2cccnc2)c(-c2ccc(Cl)cc2)c1CC(=O)OC1COC1 [Example 3-232] | – | – | effectively shortened |
| Cc1nn(-c2cccnc2)c(-c2ccc(Cl)cc2)c1CC(=O)OCC1(C)COC1 [Example 3-233] | – | – | effectively shortened |
